Test results reported in patent US20240252660A1, “CARGO MOLECULE TRANSDUCTION DOMAIN RMMR1, VARIANT THEREOF, RECOMBINANT CARGO MOLECULE, AND METHOD FOR TRANSDUCING CARGO MOLECULE USING SAME” (REMEDI CO., LTD., priority 2021, published 2024).
Where no end group is shown, it is not given here.

Tests used:
Format in all cases: cell-based
[1] = system: cells; test: FACS experiment to verify self-penetration efficacy of FITC peptides (summary statement); conditions: FITC-labelled peptide, cells not specified
Text: The present inventors synthesized FITC and conducted a FACS experiment to verify its self-penetration efficacy using the cell-penetrating peptide RMMR1 derived from the human MRPL15 protein.

[2] = system: RAW264.7 cells; test: Antigen-presenting cell penetration efficiency of FITC-attached peptide; conditions: 2.5 uM, 2 hours, FITC fluorescence
Description: (§1) HaCaT, 3T3, and B16F10 cells were cultured in cell culture medium supplemented with 10% of fetal bovine serum (FBS) and antibiotic solution (100 units/ml of penicillin, 100 μg/ml of streptomycin) in DMEM medium. Cells were cultured under conditions maintained at 37° C., 95% humidity, and 5% CO2, and when the cells were 70-80% adhered to the culture dish, they were treated with trypsin-EDTA and subcultured. HaCaT cells were distributed and cultured from Professor Kim Tae Yoon of the College of Medicine, The Catholic University of Korea, 3T3 and B16F10 cells were distributed and cultured from the Seoul National University Cell Line Bank. RAW264.7 cells were distributed and cultured from the laboratory of Professor Kim Sang-Beom, College of Pharmacy, Sahmyook University.
In order to identify the penetration efficiency of RMMR1 into antigen-presenting cells, the transduction efficiency was confirmed using cell line RAW264.7 using a synthetic peptide attached with fluorescent FITC. In the case of cells without FITC attached, it is difficult to identify the permeability of the peptide, so attaching fluorescent FITC makes it easier to identify cell permeability. Each cell line was treated with FITC-attached peptides RMMR1-FITC (SEQ. NO. 1) and TAT-FITC at the same concentration of 2.5 uM for 2 hours.

[3] = system: B16F10 cells; test: RMMR1-FITC synthetic peptide cell penetration efficiency (fluorescence value) in B16F10; conditions: 2.5 uM, 2 hours
Description: as §1
(§2) In order to evaluate the cell permeability of RMMR1 in HaCaT, 3T3, B16F10 cells, 1×10^5 of HaCaT cells were attached to a 24-well plate 12 hours in advance. Thereafter, the cells were washed using serum-free DMEM medium and then treated with 2.5 uM of protein in serum-free medium for 2 hours. After 2 hours, the cells were washed a total of 3 times with serum-free medium, and then the cells were detached from the plate by treatment with 150 ul of trypsin, and then neutralized by adding 850 ul of serum-containing medium. […]

[4] = system: 3T3 cells; test: RMMR1-FITC synthetic peptide cell penetration efficiency (fluorescence value) in 3T3; conditions: 2.5 uM, 2 hours
Description: as §1, §2

ERRPRGRRRGRKC (listed as Homo sapiens) [RMMR1, 13 amino acid cargo molecule transduction domain derived from human MRPL15]
cell penetration compared with HIV-Tat peptide (FITC, FACS) [1]: penetrated cells much better than the HIV-Tat peptide

RMMR1-FITC: RMMR1 (SEQ ID NO: 1) synthetic peptide attached with fluorescent FITC (ERRPRGRRRGRKC; also: FITC label, attachment site not given here; listed as Homo sapiens)
level of cell penetration compared with control TAT-FITC peptide [2]: higher level of cell penetration compared to the control TAT-FITC peptide
cell penetration level compared with control TAT-FITC peptide [3]: significantly higher cell penetration level than the control TAT-FITC peptide
cell penetration level compared with control TAT-FITC peptide [4]: significantly higher cell penetration level than the control TAT-FITC peptide
